Patent EP3298025B1, “NEW AMINO ACID SEQUENCES WITH MI[…] DERIVED FROM NAJA ATRA CARDIOTOXIN 1 (CTX-1)” (Università degli Studi di Parma, priority 2015, dated 2016)
No end group written: not given here.

Experiments:
[1] = at 40 µg / ml; cited from earlier work
[2] = tested on: epithelial MDBK cells (Madin Darby Bovine Kidney); experiment: cytotoxicity against eukaryotic cells, Trypan Blue; type: cell-based; details: overnight incubation
Experimental: Peptides cytotoxicity against epithelial MDBK cells (Madin Darby Bovine Kidney) was determined using cell cultures of about 5x10^5 cells/ml with and without peptides, with overnight incubation at 37°C with CO2. The negative control was in medium without peptide; positive control was in medium with 0.2% of Triton x100, to completely lyse cells. Cells vitality was assessed adding every well with 20 µl of Trypan Blue, incubating other 5 minutes at 37°C. MCC10 was the minimal peptide concentration with 10% of cytotoxicity.

Mutton RBCs = experiment: haemolysis test; type: cell-based; details: maximum concentration 100 µg/ml; 1 hour at room temperature
Experimental: Mutton RBCs, sampled immediately before the test, were washed with isotonic buffer to obtain clear supernatant. The washed RBCs were incubated with different peptide concentrations for 1 hour at room temperature. After this the solution was centrifuged and the haemolysis in the supernatant quantified with a spectrophotometer at 450 nm. The positive control was RBC lysed with 0,1% of Tryton. The sample determined the maximal optical density. The haemolysis percentage was calculated as sample optical density at 450 nm and positive control optical density ratio. MHC10 was the minimal peptide concentration able to lyse 10% of RBC.

Sequence	hemolysis [1]	Cytotoxicity: cell number percentage reduction in comparison with control ([2]; peptide 12.5 µg/ml) [%]	Cytotoxicity: cell number percentage reduction in comparison with control ([2]; peptide 100 µg/ml) [%]	haemolytic effect (Mutton RBCs) [%]
KFFKFFKFFK [synthetic peptide consisting of cationic lysine residues and hydrophobic phenylalanine residues]	severely hemolytic	–	–	–
KLIPILSKTIPAIKNLFYKI [NCP-2]	–	3	5	< 10
KLIWILSKTIPAIKNLFYKI [NCP-3]	–	3	7	< 10
